In brackets after ≈: the same amount, converted by molar mass.
Assays:
LMP7 = target: T1, LMP7 (Homo sapiens, UniProt P20618+P28062); assay: ProCISE proteasome subunit assay, LMP7; type: biochemical; conditions: MOLT4 lysate Hu 1 h
T1 construct: endogenous in cells; host or cells: MOLT-4
Description: (§1) This assay was used to assess the inhibitory activity against each of LMP2, LMP7, MECL1, β1, β2, and β5. Briefly, test compounds were serially diluted in DMSO at 100× concentration, then diluted to 10× in aqueous hypotonic lysis buffer. Lysate from the human acute lymphoblastic leukemia cell line, MOLT-4, was treated for 1 hour at 25° C. with compound at a final 1× concentration. […] Following this, lysate was denatured in guanidine hydrochloride, and subunits bound to probe were isolated with streptavidin-conjugated sepharose beads. Individual subunits were probed with subunit-specific primary antibodies, followed by HRP-conjugated secondary antibodies. A chemiluminescent substrate was used to generate signal associated with HRP binding, which was detected on a plate reader. Luminescent signal was normalized to protein content, then, percent activity calculated relative to DMSO-treated controls to generate IC50 curves.

β5 = target: T2, β5 (Homo sapiens, UniProt P20618+P28074); assay: ProCISE proteasome subunit assay, β5; type: biochemical; conditions: MOLT4 lysate Hu 1 h
T2 construct: endogenous in cells; host or cells: MOLT-4
Description: as §1

Solubility pH 7 = type: physicochemical; conditions: pH 7, aqueous buffer
[1] = target: i20S (20S immunoproteasome) (Homo sapiens, UniProt P20618+P28062); assay: 20S proteasome assay, chymotrypsin-like activity (LLVY), i20S; type: biochemical; conditions: LLVY i20S Hu 1 h CONT: IC50 (nM), succinyl-Leu-Leu-Val-Tyr-AMC
Description: (§2) Assay buffer consisted of TE buffer [20 mmol/L Tris (pH 8.0), 0.5 mmol/L EDTA] with (20S) or without (cell lysate) 0.03% SDS. Reactions were initiated by enzyme or lysate addition and monitored for AMC product formation at 27jC with a plate-based spectofluorometer (Tecan).

[2] = target: c20S (constitutive 20S proteasome) (Homo sapiens, UniProt P20618+P28074); assay: 20S proteasome assay, chymotrypsin-like activity (LLVY), c20S; type: biochemical; conditions: LLVY c20S Hu 1 h CONT: IC50 (nM), succinyl-Leu-Leu-Val-Tyr-AMC
Description: as §2

| IC50 (LMP7) [µM] | IC50 (β5) [µM] | solubility (Solubility pH 7) [µg/mL] | IC50 [1] [nM] | IC50 [2] [nM] | Compound |
| --- | --- | --- | --- | --- | --- |
| 0.211 | 0.478 | 728 (≈ 1420 µM) | 118 | 432 | COc1ccc(C[C@H](NC(=O)[C@H](CO)NC(C)=O)C(=O)N[C@@H](Cc2ccccc2)C(=O)[C@@]2(C)CO2)cc1 [Compound C-2007, (S)-2-acetamido-3-hydroxy-N—((S)-3-(4-methoxyphenyl)-1-(((S)-1-((R)-2-methyloxiran-2-yl)-1-oxo-3-phenylpropan-2-yl)amino)-1-oxopropan-2-yl)propanamide] |
| 0.0667 | 0.359 | 725 (≈ 1270 µM) | 40.2 | 117 | COCOCCC(=O)N[C@@H](C)C(=O)N[C@@H](Cc1ccc(OC)cc1)C(=O)N[C@@H](Cc1ccccc1)C(=O)[C@@]1(C)CO1 [Compound C-2013, (S)-2-((S)-2-(3-(methoxymethoxy)propanamido)propanamido)-3-(4-methoxyphenyl)-N—((S)-1-((R)-2-methyloxiran-2-yl)-1-oxo-3-phenylpropan-2-yl)propanamide] |
| 0.0564 | 0.372 |  | 16.6 | 45.7 | COc1ccc(C[C@H](NC(=O)[C@H](C)NC(=O)Cc2cc(C)no2)C(=O)N[C@@H](CC2CCCC2)C(=O)[C@@]2(C)CO2)cc1 [Compound C-2014, (S)—N—((S)-3-cyclopentyl-1-((R)-2-methyloxiran-2-yl)-1-oxopropan-2-yl)-3-(4-methoxyphenyl)-2-((S)-2-(2-(3-methylisoxazol-5-yl)acetamido)propanamido)propanamide] |
| 3.06 | 30.4 | 169 (≈ 298 µM) | 2920 | 18600 | COc1ccc(C[C@H](NC(=O)[C@@H](C)NC(=O)Cc2cc(C)no2)C(=O)N[C@@H](CC2CCCC2)C(=O)[C@@]2(C)CO2)cc1 [Compound C-2015, (S)—N—((S)-3-cyclopentyl-1-((R)-2-methyloxiran-2-yl)-1-oxopropan-2-yl)-3-(4-methoxyphenyl)-2-((R)-2-(2-(3-methylisoxazol-5-yl)acetamido)propanamido)propanamide] |
| 1.18 | 34.9 | 129 (≈ 243 µM) | 570 | 12800 | COCCC(=O)N[C@H](C)C(=O)N[C@@H](Cc1ccc(OC)cc1)C(=O)N[C@@H](CC1CCCC1)C(=O)[C@@]1(C)CO1 [Compound C-2018, (S)—N—((S)-3-cyclopentyl-1-((R)-2-methyloxiran-2-yl)-1-oxopropan-2-yl)-3-(4-methoxyphenyl)-2-((R)-2-(3-methoxypropanamido)propanamido)propanamide] |
| 1.89 | 30.8 | 103 (≈ 193 µM) | 1220 | 99000 | CCOCC(=O)N[C@H](C)C(=O)N[C@@H](Cc1ccc(OC)cc1)C(=O)N[C@@H](CC1CCCC1)C(=O)[C@@]1(C)CO1 [Compound C-2021, (S)—N—((S)-3-cyclopentyl-1-((R)-2-methyloxiran-2-yl)-1-oxopropan-2-yl)-2-((R)-2-(2-ethoxyacetamido)propanamido)-3-(4-methoxyphenyl)propanamide] |
| 0.195 | 0.429 | 84.7 (≈ 153 µM) | 23.5 | 65.3 | COc1ccc(C[C@H](NC(=O)[C@H](C)NC(=O)c2cc(C)no2)C(=O)N[C@@H](CC2CCCC2)C(=O)[C@@]2(C)CO2)cc1 [Compound C-2022, N—((S)-1-(((S)-1-(((S)-3-cyclopentyl-1-((R)-2-methyloxiran-2-yl)-1-oxopropan-2-yl)amino)-3-(4-methoxyphenyl)-1-oxopropan-2-yl)amino)-1-oxopropan-2-yl)-3-methylisoxazole-5-carboxamide] |
| 0.318 | 2.69 | 100 (≈ 181 µM) | 55.3 | 857 | COc1ccc(C[C@H](NC(=O)[C@@H](C)NC(=O)c2cc(C)no2)C(=O)N[C@@H](CC2CCCC2)C(=O)[C@@]2(C)CO2)cc1 [Compound C-2023, N—((R)-1-(((S)-1-(((S)-3-cyclopentyl-1-((R)-2-methyloxiran-2-yl)-1-oxopropan-2-yl)amino)-3-(4-methoxyphenyl)-1-oxopropan-2-yl)amino)-1-oxopropan-2-yl)-3-methylisoxazole-5-carboxamide] |
| 0.17 | 3.45 | 126 (≈ 221 µM) | 64.6 | 1360 | COc1ccc(C[C@H](NC(=O)[C@@H](C)NC(=O)c2cnc(C)s2)C(=O)N[C@@H](CC2CCCC2)C(=O)[C@@]2(C)CO2)cc1 [Compound C-2026, N—((R)-1-(((S)-1-(((S)-3-cyclopentyl-1-((R)-2-methyloxiran-2-yl)-1-oxopropan-2-yl)amino)-3-(4-methoxyphenyl)-1-oxopropan-2-yl)amino)-1-oxopropan-2-yl)-2-methylthiazole-5-carboxamide] |
| 0.618 | 3.6 | 753 (≈ 1380 µM) | 470 | 2130 | COc1ccc(C[C@H](NC(=O)[C@H](C)NC(=O)CC(C)(C)O)C(=O)N[C@@H](CC2CCCC2)C(=O)[C@@]2(C)CO2)cc1 [Compound C-2027, N—((S)-1-(((S)-1-(((S)-3-cyclopentyl-1-((R)-2-methyloxiran-2-yl)-1-oxopropan-2-yl)amino)-3-(4-methoxyphenyl)-1-oxopropan-2-yl)amino)-1-oxopropan-2-yl)-3-hydroxy-3-methylbutanamide] |
| 0.0757 | 1.16 | 776 (≈ 1420 µM) | 11.9 | 323 | COc1ccc(C[C@H](NC(=O)[C@@H](C)NC(=O)CC(C)(C)O)C(=O)N[C@@H](CC2CCCC2)C(=O)[C@@]2(C)CO2)cc1 [Compound C-2028, N—((R)-1-(((S)-1-(((S)-3-cyclopentyl-1-((R)-2-methyloxiran-2-yl)-1-oxopropan-2-yl)amino)-3-(4-methoxyphenyl)-1-oxopropan-2-yl)amino)-1-oxopropan-2-yl)-3-hydroxy-3-methylbutanamide] |
| 0.315 | 2.13 | 286 (≈ 502 µM) | 71.7 | 785 | COc1ccc(C[C@H](NC(=O)[C@@H](CO)NC(=O)c2cc(C)no2)C(=O)N[C@@H](CC2CCCC2)C(=O)[C@@]2(C)CO2)cc1 [Compound C-2030, N—((R)-1-(((S)-1-(((S)-3-cyclopentyl-1-((R)-2-methyloxiran-2-yl)-1-oxopropan-2-yl)amino)-3-(4-methoxyphenyl)-1-oxopropan-2-yl)amino)-3-hydroxy-1-oxopropan-2-yl)-3-methylisoxazole-5-carboxamide] |
| 1.45 | 26.7 | 41.7 (≈ 75.7 µM) | 763 | 18300 | COc1ccc(C[C@H](NC(=O)[C@@H](C)NC(=O)c2ccccn2)C(=O)N[C@@H](CC2CCCC2)C(=O)[C@@]2(C)CO2)cc1 [Compound C-2031, N—((R)-1-(((S)-1-(((S)-3-cyclopentyl-1-((R)-2-methyloxiran-2-yl)-1-oxopropan-2-yl)amino)-3-(4-methoxyphenyl)-1-oxopropan-2-yl)amino)-1-oxopropan-2-yl)picolinamide] |
| 0.452 | 4.05 | 172 (≈ 313 µM) | 107 | 1890 | COc1ccc(C[C@H](NC(=O)[C@@H](C)NC(=O)c2cccnc2)C(=O)N[C@@H](CC2CCCC2)C(=O)[C@@]2(C)CO2)cc1 [Compound C-2032, N—((R)-1-(((S)-1-(((S)-3-cyclopentyl-1-((R)-2-methyloxiran-2-yl)-1-oxopropan-2-yl)amino)-3-(4-methoxyphenyl)-1-oxopropan-2-yl)amino)-1-oxopropan-2-yl)nicotinamide] |
| 46.7 | > 250 | 165 (≈ 299 µM) | 1450 | 10100 | COc1ccc(C[C@H](NC(=O)[C@@H](C)NC(=O)c2ccncc2)C(=O)N[C@@H](CC2CCCC2)C(=O)[C@@]2(C)CO2)cc1 [Compound C-2033, N—((R)-1-(((S)-1-(((S)-3-cyclopentyl-1-((R)-2-methyloxiran-2-yl)-1-oxopropan-2-yl)amino)-3-(4-methoxyphenyl)-1-oxopropan-2-yl)amino)-1-oxopropan-2-yl)isonicotinamide] |
| 0.0132 | 0.0211 | 3.1 (≈ 4.92 µM) | 4.6 | 15.3 | COc1ccc(C[C@H](NC(=O)[C@@H](NC(=O)OCc2ccccc2)C2COC2)C(=O)N[C@@H](Cc2ccccc2)C(=O)[C@@]2(C)CO2)cc1 [Compound C-2035, benzyl ((S)-2-(((S)-3-(4-methoxyphenyl)-1-(((S)-1-((R)-2-methyloxiran-2-yl)-1-oxo-3-phenylpropan-2-yl)amino)-1-oxopropan-2-yl)amino)-1-(oxetan-3-yl)-2-oxoethyl)carbamate] |
